Source: publication PMC11530130, “Peripherally restricted PICK1 inhibitor mPD5 ameliorates pain behaviors in murine inflammatory and neuropathic pain models” (JCI Insight, 2024)
Values joined by “and” are separate entries in the source; they are usually repeats but may differ in a detail not shown here. Equal entries are not always repeated.

Experiments:
[1] = tested on: mice, spared nerve injury (SNI) model; experiment: Ultrasonic vocalisation (USV) recordings at 37 kHz, SNI mice; type: in vivo, mouse; settings: for Ultrasonic vocalisations, individual animals (Fig 5E): SNI mice
Protocol: Time spent in each compartment was […]
compartment was used to define three even groups.
Conditioning (DAY 2-9): Mice were injected s.c. with PBS, morphine (10 mg/kg) (RH Pharmacy, Denmark, Vnr. 475249), or 10 μmol/kg mPD5 immediately before being placed in and confined to the appropriate compartment for 40 min. Drug was paired to the least-preferred compartment, conditioning was alternated so that mice were never placed in the same compartment two days in a row, and the day on which they were exposed to drug was […]
Preference test (DAY 10): Mice were allowed to freely move between the two compartments […]
Ultrasonic vocalisation (USV) recordings.
Mice were left in Med-Associates square behavioral chambers (27 cm x 27 cm) to freely roam around for 60 min, four days in a row. […] On day three, both control and SNI mice were placed directly in the chambers and recorded for 60 min. On day four, control mice were injected s.c. with PBS, and SNI mice were injected with either 10 μmol/kg mPD5 or PBS immediately before being placed in the chambers and recorded for 60 min. The recordings were analyzed using the Avisoft SASLab Pro software (Version 5.02.07, Avisoft Bioacoustics) as described in (12), applying a fast fourier transformation (FFT) (1024 FTT length, 100% frame size, Blackman window, and 87.5% time window overlap). […]
To compare pain-relevant vocalizations, only short and constant USVs of 37 kHz were counted […]
Mice were pretreated with 10 μmol/kg mPD5, 10 mg/kg morphine (RH Pharmacy, Denmark, Vnr. 475249), or PBS 45 min before habituation to observation container (glass cylinder surrounded by mirrors on 2 sides) for 15 min. […] Mice were recorded for three min after i.pl. injection with capsaicin and euthanized the same day. Mice were scored manually for the amount of time spent paw licking within three min after capsaicin administration. […]

[2] = Stability of mPD5 in PBS, 30 days at 5 °C and 25 °C, HPLC-UV-MS
Protocol: SUPPORTING INFORMATION: Method Section.
Sex as a biological variable.
All peptides were ordered from WuXI AppTec (Shanghai, China) or TAG-Copenhagen […]
Assessment of solubility and stability of mPD5.
Solubility was determined by visual inspection of samples dissolved in increasing concentration in 10 mM PBS as judged by full transparency and monophasic appearance.
Stability was addressed by […] for four concentrations (2, 20, 50, and 200 µM), by leaving mPD5 in PBS at 5 °C and 25 °C for 30 days followed by HPLC-UV-MS. […]
Superdex200 Increase 10/300.

[3] = 30 days 5°C, nominal conc. 2 μM
[4] = 30 days 5°C, nominal conc. 20 μM
[5] = 30 days 5°C, nominal conc. 50 μM
[6] = 30 days 5°C, nominal conc. 200 μM
[7] = 30 days 25°C, nominal conc. 2 μM
[8] = 30 days 25°C, nominal conc. 20 μM
[9] = 30 days 25°C, nominal conc. 50 μM
[10] = 30 days 25°C, nominal conc. 200 μM

With CCCCCCCCCCCCCC(=O)N(CCOCCOCCC(=O)N[C@@H](Cc1c[nH]cn1)C(=O)N[C@@H](Cc1c[nH]c2ccccc12)C(=O)N[C@@H](CC(C)C)C(=O)N[C@@H](CCCCN)C(=O)N[C@H](C(=O)O)C(C)C)CCOCCOCCC(=O)N[C@@H](Cc1c[nH]cn1)C(=O)N[C@@H](Cc1c[nH]c2ccccc12)C(=O)N[C@@H](CC(C)C)C(=O)N[C@@H](CCCCN)C(=O)N[C@H](C(=O)O)C(C)C [mPD5, myristoyl-NPEG4-(HWLKV)2] the “Ultrasonic vocalisations, individual animals (Fig 5E)” value ([1]; Baseline) was 4 and 10 and 8 and 9 and 7 and 5, the “Ultrasonic vocalisations, individual animals (Fig 5E)” value ([1]; min 60-120 post injection) was 3 and 8 and 1 and 7 and the “effect on SNI-induced increase of vocalizations at 37 kHz” value ([1]; SNI, female mice, s.c. 10 μmol/kg, to the level of the naive mice) was “fully reversed”. For the same compound, the “Measured conc. mPD5” value [2, 3] was 0.5 µM, the UV-HPLC peak area [2, 3] was 37 and the pH [2, 3] was 7.37. For the same compound, the “Measured conc. mPD5” value [2, 4] was 17 µM, the UV-HPLC peak area [2, 4] was 1196 and the pH [2, 4] was 7.40. For the same compound, the “Measured conc. mPD5” value [2, 5] was 49 µM, the UV-HPLC peak area [2, 5] was 3347 and the pH [2, 5] was 7.39. The “Measured conc. mPD5” value [2, 6] was 194 µM, the UV-HPLC peak area [2, 6] was 6665 and the pH [2, 6] was 7.37. The “Measured conc. mPD5” value [2, 7] was 0.4 µM, the UV-HPLC peak area [2, 7] was 26 and the pH [2, 7] was 7.37. The “Measured conc. mPD5” value [2, 8] was 17 µM, the UV-HPLC peak area [2, 8] was 1161 and the pH [2, 8] was 7.39. The “Measured conc. mPD5” value [2, 9] was 48 µM, the UV-HPLC peak area [2, 9] was 3325 and the pH [2, 9] was 7.41. The “Measured conc. mPD5” value [2, 10] was 203 µM, the UV-HPLC peak area [2, 10] was 7005 and the pH [2, 10] was 7.36. For the same compound, the shelf stability ([2]; PBS, 30 days, 5°C and 25°C) was “excellent shelf stability”.
